Data from the METLIN SMRT retention time set (Domingo-Almenara et al. 2019).

Assay: gradient 5% acetonitrile 3 min, to 50% in 2 min, to 85% in 15 min, held 3 min, 100 µL/min
Conditions: column: Zorbax Extend-C18 2.1 x 50 mm; eluents: water / acetonitrile, 0.1% formic acid
Method in brief: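 Over 3 months, pure standards in mixtures of ~100 molecules were run by HPLC coupled to a quadrupole time-of-flight mass spectrometer in positive and negative ionization mode. The column was a Zorbax Extend-C18 (2.1 × 50 mm, 1.8 μm) at 100 μL/min, eluted with water and acetonitrile each holding 0.1% formic acid, with 40 μL dead and 900 μL dwell volumes. Retention time was determined from adduct peaks chosen by software and checked manually.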

| Structure (SMILES) | RP-LC retention time |
| --- | --- |
| COc1ccc(Cn2c(=O)n(C)c3ncncc32)cc1F | 683 s |
| Cn1c(CNC(=O)C2CCC2)nc2c1CN(S(=O)(=O)c1ccc(Cl)s1)CC2 | 666 s |
| CCOC(=O)c1[nH]c(C)c(C(=O)C(C)N(C(=O)c2ccc(Cl)cc2)C2CC2)c1C (centres undefined) | 978 s |
| Cc1ccc(CN2C[C@@H]3C(=O)N(CCc4ccccc4)C(=O)[C@@H]3C2)cc1 | 760 s |
| COc1cccc(Nc2nc(C)c(C(=O)Nc3cc(F)cc(F)c3)s2)c1 | 1040 s |
| Cn1c(C(=O)N2CCN(c3cccc(Cl)c3)CC2)cc2c(=O)oc3ccccc3c21 | 1030 s |
| CCOC(=O)C(C)NC(=O)Nc1cc(F)c2nc(N3CCOCC3)ccc2c1 (centres undefined) | 812 s |
| COc1ccc(NC(=O)N2CCC3(CC2)NC(=O)c2ccccc2N3C)c(C)c1 | 781 s |
| CC1=NS(=O)(=O)N(C)C=C1C(=O)OCc1nc(Cc2cccc(C)c2)no1 | 957 s |
| CCN1CCCn2cc(S(=O)(=O)Nc3ccc(C)c(F)c3)cc2C1=O | 754 s |
| Cc1ccc(NC(=O)c2ccc3c(c2)N(CC(=O)N2CCCC2)C(=O)CO3)nc1 | 619 s |
| Cc1ccc(-c2cn3c(CC(=O)NCCC4=CCCCC4)csc3n2)cc1C | 942 s |
| CC(C)CNC(=O)C1Cn2cccc2C(=O)N1CC(C)C (centres undefined) | 750 s |
| CCn1c(C(=O)Nc2cc(C)cc(C)c2)cc2sc(Cl)cc21 | 1110 s |
| CCOc1ccccc1NC(=O)c1cncc(NS(=O)(=O)c2ccc(OC)cc2)c1 | 798 s |
| O=C(N[C@H]1C[C@@H]2C[C@H]1CN2C(=O)c1ccoc1)c1ccccc1 | 663 s |
| COc1cc(CNC(=O)C2CCCN(c3nccnc3Oc3ccccc3)C2)cc(OC)c1 (centres undefined) | 929 s |
| O=C(NCCCCCCNC(=O)ON=C1CCCCC1)ON=C1CCCCC1 | 926 s |
| COc1ccc(CNS(=O)(=O)c2cc(-c3[nH]ncc3C(=O)N3CCCC3)oc2C)cc1 | 718 s |
| Cn1nc(-c2nc(-c3ccccc3)no2)c2c1CCN(C(=O)NC1CCCCC1)C2 | 914 s |
| O=C(CCCn1c(=O)c2cccn2c2ccc(Br)cc21)NCc1ccccn1 | 646 s |
| O=C(NCc1ccc2c(c1)OCO2)c1nnc(-c2ccc(S(=O)(=O)N3CCOCC3)cc2)o1 | 804 s |
| CCCCn1nc2ccc(S(=O)(=O)N3CCCCCC3)cn2c1=O | 957 s |

| Structure (SMILES) | RP-LC retention time |
| --- | --- |
| O=C([C@@H]1OCC(=O)N(C2CC2)[C@H]1c1ccccc1)N1CCN(c2ccccc2)CC1 | 834 s |
| COC(=O)c1sccc1S(=O)(=O)Nc1ccc(CC(=O)N2CCC(O)CC2)cc1 | 882 s |
| COc1ccc(NC(=O)N2CCC(n3cnc4ccc(Cl)cc4c3=O)CC2)cc1 | 802 s |
| CCC(=O)Nc1ccc(-n2cnc(C(=O)NC3CCCCCC3)c2)nc1 | 759 s |
| Cc1ccc(N2CCN(Cc3nc(-c4ccc(N5CCSCC5)nc4)no3)CC2)cc1 | 959 s |
| O=C(Nc1cccc(C(F)(F)F)c1)NC1CCN(c2ccc(F)cc2)C1=O (centres undefined) | 923 s |
| CCOC(=O)CCNC(=O)NCC1CC(=O)N(c2ccc(F)cc2)C1 (centres undefined) | 629 s |
| CCn1ccc(C(=O)N2CCCn3cc(-c4cccc(C#N)c4)nc32)n1 | 639 s |
| CSc1cccc(NC(=O)N2CCN(c3cnn4c(C5CC5)nnc4c3)CC2)c1 | 694 s |
| O=C(Nc1ccccc1F)N1CC(c2nc(CCOCC3CCCC3)no2)C1 | 946 s |
| Cc1ccc(CNC(=O)C2(C)CCCN(C(=O)Nc3ccccc3Cl)C2)cc1 (centres undefined) | 995 s |
| Cc1ccccc1N1C(=O)CN(S(=O)(=O)c2ccccc2)CC1(C)C(=O)NCc1ccc(F)cc1 (centres undefined) | 913 s |
| CCCNC(=O)CCc1c(-c2ccc(F)cc2)nc2ccccn12 | 608 s |
| O=C(Nc1cccc(C(F)(F)F)c1)N1CCCC1c1nncn1C1CCCC1 (centres undefined) | 765 s |
| CCCN1C(=O)COc2ccc(-c3csc(NC(=O)c4ccc(F)cc4)n3)cc21 | 1060 s |
| CCc1ccc(NC(=O)N2CCC(CC(=O)N3CCCCC3)CC2)cc1 | 833 s |
| CCOCC(=O)N1CCC(Oc2nccnc2N2CCOCC2)C1 (centres undefined) | 640 s |
| C[C@@H](NCCCc1cccc(C(F)(F)F)c1)c1cccc2ccccc12 | 828 s |
| Fc1ccc(-c2noc(Cn3ccnc3)n2)cc1Br | 650 s |
| Cc1ccc(NC(=O)Cn2cc(-c3ccccc3)c(N(C)C)n2)c(F)c1 | 997 s |
| Cc1ccc2nc(-c3ccccc3)c(Nc3ccc4c(c3)OCCO4)n2c1 | 697 s |
| O=C(Cc1c[nH]c2ccccc12)N1CCC(NS(=O)(=O)c2ccc(F)cc2)CC1 | 781 s |
| COc1cc2c(cc1OC)CN(C(=O)c1cc(-c3ccc(F)cc3)c[nH]1)CC2 | 847 s |

| Structure (SMILES) | RP-LC retention time |
| --- | --- |
| Nc1nc(SCCc2ccccc2)c2[nH]cnc2n1 | 675 s |
| Cc1[nH]c(C)c(S(=O)(=O)N2CCC(C(=O)NC3CCCCCC3)CC2)c1C(=O)N1CCCC1 | 702 s |
| Cc1ccc(CCC(=O)Nc2c(C)cccc2C(=O)O)o1 | 726 s |
| COc1ccc(F)cc1S(=O)(=O)N1CCn2c(nn(C)c2=O)C1 | 654 s |
| Cc1cccc(NC(=O)CN2C(=O)CCS(=O)(=O)c3ccccc32)c1 | 762 s |
| O=C(CSCC(=O)Nc1nc2ccccc2s1)Nc1nc(-c2cccs2)cs1 | 854 s |
| COc1cc(NC(=O)N2CCC3(CC2)NC(=O)c2ccccc2O3)cc(OC)c1OC | 685 s |
| Cc1ccc(S(=O)(=O)N2CCC(n3c(-c4ccco4)nc4cccnc43)C2)cc1Cl (centres undefined) | 999 s |
| O=C(O)c1ccc(Nc2c(-c3cccc(O)c3)nc3cnccn23)cc1 | 620 s |
| CCn1ccc(NC(=O)NC2CCCCC2)n1 | 779 s |
| Cc1nn(-c2ccc(F)cc2)c(C)c1S(=O)(=O)N1CCC(C(=O)NC2CC2)CC1 | 764 s |
| Cc1ccnc(SCC(=O)Nc2nc(-c3ccccc3)cs2)n1 | 917 s |
| Cc1nn(CC(=O)NCCN(C)Cc2ccccc2)c(=O)c2noc(C)c12 | 595 s |
| CC(=O)Nc1ccc(C(=O)N(C2CC2)C2(C(=O)NCc3ccccc3)CCN(C(C)=O)CC2)cc1 | 692 s |
| Cc1cccc(Sc2nccnc2N2CCCC(C(=O)NCCN3CCOCC3)C2)c1 (centres undefined) | 686 s |
| Cc1nnc(SCCC(=O)Nc2nc(-c3ccccc3)ns2)s1 | 890 s |
| COc1ccc(OC)c(CNC(=O)C2CCCN(c3ccc(=O)n(-c4ccc(C)c(Cl)c4)n3)C2)c1 (centres undefined) | 924 s |
| O=C(N[C@@H](COc1ccc2[nH]c(=O)[nH]c2c1)c1ccccc1)c1cccn(Cc2ccc(F)c(F)c2)c1=O | 893 s |
| COc1cc2ncnc(Nc3ccc(NC(=O)c4ccccc4)cc3)c2cc1OC | 687 s |
| N#CCc1ccc(NC(=O)C2CCCN(S(=O)(=O)Cc3ccc(F)cc3)C2)cc1 (centres undefined) | 884 s |
| O=C1CCC(C(=O)N2CCCn3ccnc3C2C2CCCC2)=NN1 (centres undefined) | 564 s |
| O=C(Cc1c[nH]c2ncccc12)NCc1ccc(Br)cc1 | 666 s |
| CCOc1ccc(-c2noc(Cn3cnc4c(cnn4-c4ccc(OC)cc4)c3=O)n2)cc1OC | 973 s |

| Structure (SMILES) | RP-LC retention time |
| --- | --- |
| CC1=C(c2ccc(F)cc2)S(=O)(=O)N=C1N1CCCN(C(=O)CC2CCCC2)CC1 | 883 s |
| CCn1cc2c3c(cccc31)CN(C(=O)Nc1ccc(OC)c(Cl)c1)CC2 | 977 s |
| COc1cccc(NS(=O)(=O)c2c(C)nn(-c3ccc(-c4ccc(C)cc4)nn3)c2C)c1 | 1080 s |
| Cc1cc(C)cc(NC(=O)N2CCC(n3cnc4cc(F)ccc4c3=O)CC2)c1 | 846 s |
| Cc1cc(C(=O)Nc2nc3c(s2)CN(C(=O)c2snnc2C)CC3)no1 | 660 s |
| COc1ccc(NC(=O)c2sc(N3CCCC3=O)nc2C)cc1Cl | 809 s |
| CC(=O)N1CCCN(C2=NS(=O)(=O)C(c3ccc(C)c(C)c3)=C2C)CC1 | 630 s |
| CN(C)C/C=C(/c1ccc(Br)cc1)c1cccnc1 | 664 s |
| CCN1C(=O)C(C)(C(=O)Nc2cc(OC)ccc2OC)Oc2cccnc21 (centres undefined) | 959 s |
| CC1=C(c2ccc(C)c(C)c2)S(=O)(=O)N=C1N1CCCN(C(=O)c2ccco2)CC1 | 836 s |
| Cc1nc(SCC(=O)Nc2nc3ccccc3s2)c2c(=O)n(C)c(=O)n(C)c2n1 | 793 s |
| O=C(CN1CC=C(c2cnn(-c3ccccc3)c2)CC1)Nc1ccccc1Cl | 690 s |
| CCOc1ccc(NC(=O)c2cc(C)n3nc(-c4ccco4)cc3n2)cc1 | 1130 s |
| O=C(NCCc1ccco1)c1ccc2ccnc(N3CCN(c4ccc(Cl)cc4)CC3)c2c1 | 887 s |
| O=C(NCc1ccccc1)C1CN(S(=O)(=O)c2cccnc2)CC12CCCCC2 (centres undefined) | 864 s |
| Cc1cccc(NC(=O)N2CCCC2c2cc(C(C)C)on2)c1 (centres undefined) | 967 s |
| COc1ccc(-c2nnc(Cc3nc(-c4ccc(C)c(C)c4)no3)o2)cc1 | 1110 s |
| CNC(=O)Cc1csc(NC(=O)CN(C)c2nc3ccccc3s2)n1 | 624 s |
| Cc1ccc2nc(N3CCN(c4ccccc4F)CC3)c(-c3noc(C)n3)cc2c1 | 730 s |
| COc1cc(N2CCN(C(=O)c3cnccn3)CC2)nc(C)n1 | 515 s |
